Laboratory results from patent publication US20090105562A1, “SYSTEM AND METHODS FOR SCREENING OR ANALYZING TARGETS” (TAIPEI VETERANS GENERAL HOSPITAL, priority 2007, published 2009).

Tests used:
[1] = Bile duct microdialysis with HPLC-UV of unbound cefoperazone in rat bile; format: in vivo; details: male, Sprague-Dawley, bile microdialysate (bile duct), 360 min following cefoperazone intravenous administration (30 mg/kg), read-out: cefoperazone concentration in microdialysate from rat biliary duct
Method: Adult, male Sprague-Dawley rats (280-350 g) were obtained from the Laboratory Animal Center at National Yang-Ming University (Taipei, Taiwan). These animals were specifically pathogen-free and were allowed to acclimate to their environmentally controlled quarters (24±1° C. and 12:12 h light-dark cycle) for at least 5 days before the experiments began. At the start of experiments, the rats were anesthetized with urethane 0.8 g/ml and chloralose 0.08 g/ml ([…], i.p.). Throughout the experimental period, anesthesia was maintained by administering one quarter of the initial dose at each hour. The experimental animals were kept warm with a heating pad throughout the experiments.
The HPLC system consisted of a chromatographic pump (BAS PM-80, Bioanalytical System, West Lafayette, Ind., USA), an on-line injector (CMA/160, Stockholm, Sweden) equipped with a 20 μl sample loop and a UV detector (Soma S-3702, Tokyo, Japan). […] Output signal from the HPLC-UV was recorded using an EZChrom chromatographic data system (Scientific Software, San Ramon, Calif., USA). […]
For in vivo recovery, normal saline solution containing cefoperazone (50 or 100 μg/ml) were pumped through the probes at a constant flow rate (2 μl/min) using the infusion pump (CMA/100). After a stabilization period of 2 h, the inlet (C^in) and outlet (C^out) concentrations of cefoperazone were determined by HPLC. […]

[2] = test system: c-FLIP; assay: Protein levels of c-FLIP and pro-caspases in fluoxetine-treated NSCs (Western, immunostaining); format: cell-based, rat
Method: (§1) All animal used were treated in accordance with the Animal Care and Use Committee guideline at Taipei Veterans General Hospital. Adult Sprague-Dawley rats (8 weeks old, 250 g) were anesthetized with intraperitoneal phenobarbital (Sigma, USA). The location of their brains was mapped: then, the brain was surgically separated from the hippocampus region with the procedure. Tissues from the hippocampus of the adult SD rats were dissociated and incubated in Hank's balanced salt solution (HBSS) containing collagenase (78 units/ml) and hyaluronidase (38 units/ml) for 10 mins at 37° C. The tissues were then mechanically dissected and placed in a trypsin solution (1.33 mg/ml) at 37° C. for another 10 mins. Dissociated cells were then centrifuged at 150 g for 5 mins. The enzyme solution was then removed and replaced with serum-free culture media composed of Dulbecco modified Eagle medium (DMEM) and F-12 nutrient (1:1) including insulin (25 μg/mL), transferrin (100 μg/mL), progesterone (20 nM), putrescine (60 μM), sodium selenite (30 nM), and human recoFLinant epidermal growth factor (EGF) 20 ng/mL and fibroblast growth factor-basic (bFGF) 20 ng/mL (R&D Systems, Minneapolis, Minn.). Viable cells were counted by trypan blue exclusion and plated as 5000 cells/200 μL per well in 96-well plates (Corning, Acton, Mass.) with no substrate pretreatment.
The pGL3-FLIP was obtained from based on T. Bartke et al., Oncogene 20 (2001) 571-580. The c-FLIP promoter deletion constructs pGL3-FLIP978, pGL3-FLIP696, pGL3-FLIP414 and pGL3-FLIP132 were generated by PCR amplification of corresponding DNA sequences from pGL3-FLIP using the following forward primers 5′-[…] […]
An avidin-biotin complex method was used for the immunohistochemical staining in the differentiated NSCs. […] Immunoreactive signals were detected with a mixture of biotinylated rabbit antimouse IgG and Fluoesave (Calbiochem, La Jolla, Calif., USA) under immunofluorescent microscope (Olympus FV300).

[3] = test system: c-FLIP promoter; assay: c-FLIP promoter luciferase assay in fluoxetine-treated NSCs; format: cell-based, rat; details: fluoxetine 20 μm
Method: as §1, with “pretreatment. […]” for “pretreatment.”

[4] = test system: c-FLIP; assay: c-FLIP mRNA expression in fluoxetine-treated NSCs (real-time RT-PCR); format: cell-based, rat; details: FL-treated NSCs
Method: as §1, with “The enzyme solution was then removed and replaced with serum-free culture media composed of Dulbecco modified Eagle medium (DMEM) and F-12 nutrient (1:1) including insulin (25 μg/mL), transferrin (100 μg/mL), progesterone (20 nM), putrescine (60 μM), sodium selenite (30 nM), and human recoFLinant epidermal growth factor (EGF) 20 ng/mL and fibroblast growth factor-basic (bFGF) 20 ng/mL (R&D Systems, Minneapolis, Minn.).” left out
For real-time RT-PCR, the total RNA was extracted using the RNAeasy kit (Qiagen, Valencia, Calif., USA) as previously described C. […] The quantification in the unknown samples was performed by the LightCycler Relative Quantification Software version 3.3 (Roche Molecular Systems, Alameda, Calif., USA). […]

[5] = different concentrations of fluoxetine treatment

CCN1CCN(C(=O)N[C@@H](C(=O)N[C@@H]2C(=O)N3C(C(=O)O)=C(CSc4nnnn4C)CS[C@H]23)c2ccc(O)cc2)C(=O)C1=O [cefoperazone]
concentration at 360 min [1]: 27800 ng/mL

CNCCC(Oc1ccc(C(F)(F)F)cc1)c1ccccc1 (stereo not drawn) [FL, fluoxetine]
protein expression of c-FLIP ([2]; FL-treated NSCs): up-regulated | protein level of inactive caspase 3 (pro-form) [2, 5]: not decreased | protein level of inactive caspase 8 (pro-form) [2, 5]: not decreased | c-FLIP promoter (−414 to −133 bp) region activity [3]: Activates | mRNA expression of c-FLIP [4]: up-regulated
